# Key:
# Type in all cases: physicochemical
# [1] = Comparative stability, Formulation 4 (based on Treanda, mannitol); details: pH 4-5 (bendamustine), pH 4 (Compound (1c)•HCl)
# Procedure: (§1) The stability of Compound (1c) either as the HCl salt or as the free base was compared to the stability of melphalan HCl and/or bendamustine HCl in various pharmaceutical formulations and at different concentrations and at temperatures of 0° C. or 25° C.
# (§2) The stability of the compounds in the pharmaceutical formulations was determined at concentrations within the range from 0.4 mg/mL to 0.5 mg/mL, from 0.9 mg/mL to 1.1 mg/mL, and from 1.8 mg/mL to 2.1 mg/mL.
# (§3) The amount of the active pharmaceutical ingredient (API) (Compound (1c), melphalan or bendamustine) in the pharmaceutical formulations at different times during storage was determined using HPLC/UV as described in detail for Example 4 and Example 5.
# Treanda® is an injectable formulation of bendamustine hydrochloride, 1H-benzimidazole-2-butanoic acid, 5-[bis(2-chloroethyl)amino]-1-methyl-, 4-(5-(bis(2-chloroethyl)amino)-1-methyl-1H-benzo[d]imidazol-2-yl) butanoic acid monohydrochloride approved by the FDA. Treanda® for injection is provided in a vial containing either 25 or 100 mg of bendamustine HCl as a white to off-white lyophilized powder. Each vial contains either 25 mg or 100 mg of bendamustine hydrochloride and 42.5 mg or 170 mg of mannitol, USP, which is reconstituted in either 0.9% sodium chloride injection, USP, or 2.5% dextrose/0.45% sodium chloride solution injection, USP to a final concentration of 0.2 mg/mL-0.6 mg/mL and adjusted to a pH from 2.5 to 3.5.
# A series of 12 mL glass vials each containing 12.5 mg (0.0317 mmol) of bendamustine mono-hydrochloride salt (C16H21C12N3O2·HCl, 394.72 g/mol; MedKoo, 200470) (corresponding to 11.3 mg of bendamustine as the free base) were prepared through weighing out the commercial compound into the vials. To each of the vials either containing bendamustine mono-hydrochloride salt was added 21.3 mg (0.117 mmol) of D-mannitol (C6H14O6, MW 182.17 g/mol; SigmaAldrich, M1902). The mixtures were dissolved in 2.0 mL of double distilled water (dd-H2O) (Arrowhead), the clear colorless solutions were frozen at −78° C. (dry ice/acetone bath), and the solvents were lyophilized off at about 100 mTorr within about 16 h to afford colorless solids.
# A stock solution was prepared by dissolving 85.0 mg (0.255 mmol) of Compound (1c) (free base) and 170.4 mg of D-mannitol (0.935 mmol) (C6H14O6, MW 182.17 g/mol; SigmaAldrich, M1902), and 0.503 mL of 0.5072 M aq. HCl (0.255 mmol, 1.0 eq.) (Fluka, 318957) in about 16.0 mL of a mixture of acetonitrile/water (1:1, v/v) with vortexing in clean graduated glass cylinder (25 mL) to afford a stock solution of Compound (1c) as a mono-HCl salt of a concentration of 5.313 mg/mL and a D-mannitol concentration of 10.65 mg/mL. This solution was filtered through a 0.22 μm PTFE syringe filter into a clean 25 mL Erlenmeyer flask. Aliquots of 2.0 mL (2× 1.0 mL; 2× 5.313 mg) of this stock solution were rapidly pipetted into clean 12 mL scintillation vials. The aliquots were frozen at −78° C. (dry ice/acetone bath) and lyophilized at about 100 mTorr for about 16 hours to provide test vials each containing 11.8 mg (0.0319 mmol) of Compound (1c) mono-hydrochloride salt (mono-HCl salt) (corresponding to 10.6 mg of Compound (1c) as a free base) and 21.3 mg (0.117 mmol) of D-mannitol as a colorless powdery solid.
# The materials in the vials were dissolved 2.5 mL of double-distilled water (dd-H2O) (Arrowhead) to provide clear colorless, non-viscous stock solutions of a concentration of 4.24 mg/mL of Compound (1c) as the monohydrochloride salt or 4.54 mg/mL of bendamustine as the mono-hydrochloride salt, respectively.
# 1.0 mL of the stock solution containing 4.24 mg/mL of Compound (1c) as the monohydrochloride salt was diluted with 9.0 mL of 0.9% saline to afford 10.0 mL of a test solution of a concentration of 0.424 mg/mL of Compound (1c) as the monohydrochloride salt and with a pH of about 4. […]
# [2] = Stability of Compound (1c) free base in PBS buffer (LC/MS/MS); details: PBS buffer pH 7.4, 37° C., 1 μM
# Procedure: A stability assay was carried out in 96-well microtiter plates. (S)-3-Amino-4-(5-(bis(2-chloroethyl)amino)-2-methylphenyl) butanoic acid (Compound (1c) free base) was incubated at 37° C. in phosphate buffered saline (PBS buffer), pH 7.4. The reaction mixtures (30 μL) contained a final concentration of 1 μM of Compound (1c). The percent Compound (1c) remaining in the mixture was determined using LC/MS/MS.
# At each of the sampling time points, 300 μL of quench solution (50 vol-% acetonitrile, 50 vol-% methanol containing 1.3% (v/v) of 6N HCl) with internal standards (bucetin for positive ESI mode; warfarin for negative ESI mode) was transferred to each well. Plates were sealed and centrifuged at 4° C. for 15 min at 4,000 rpm. The supernatant was transferred to new plates for LC/MS/MS analysis.
# All samples were analyzed on LC/MS/MS using an AB Sciex API 4000® instrument, coupled to a Shimadzu LC-20AD LC Pump system. Analytical samples were separated using a Waters Atlantis T3 dC18 reverse phase HPLC column (20 mm×2.1 mm) at a flow rate of 0.4 mL/min. The mobile phases consisted of 0.1% formic acid in water (solvent A) and 0.1% formic acid in 100% acetonitrile (solvent B).
# [3] = Comparative stability, Formulation 3 (based on Evomela, SBE6.5-β-CD); details: Formulation 3, 25° C., 0.4-0.5 mg/mL, pH 5.8-6.1 (melphalan), pH 5-6 (Compound (1c)•HCl)
# Procedure: as §1, §2, §3
# Evomela® is an injectable formulation of melphalan hydrochloride, 4-[bis(2-chloroethyl)amino]-L-phenylalanine hydrochloride, approved by the FDA. Evomela® is supplied as a sterile white to off-white lyophilized powder in a single-dose vial for intravenous use. Each vial containing 50 mg melphalan free base equivalent to 56 mg melphalan hydrochloride and 2,700 mg betadex sulfobutyl ether (SBE6.5-β-CD; sulfobutyl ether β-cyclodextrin sodium) sodium, NF. Normal saline solution (0.9% Sodium Chloride Injection, USP) (8.6 mL as directed) is used to reconstitute Evomela® to a total of 10 mL having a 5 mg/mL nominal concentration of melphalan. The required volume of Evomela® needed for a patient dose is withdrawn from the vial(s) and added to the appropriate volume of 0.9% Sodium Chloride Injection, USP, to a final nominal concentration of 0.45 mg/mL of melphalan. This solution is then infused via an injection port or central venous catheter.
# A series of 12 mL glass vials each containing 5.5 mg (0.0165 mmol of Compound (1c) free base and 270 mg of SBE6.5-β-CD, Captisol®) were prepared as described in Example 4.
# The cyclodextrin derivative/Compound (1c) free base guest-host inclusion complex was reconstituted by dissolving the guest-host inclusion complex in 0.86 mL of 0.9% saline to provide 1.0 mL of a solution having a nominal concentration of 5.5 mg/mL of Compound (1c) free base.
# (§4) A 1.0 mL aliquot of this solution was diluted with 10.0 mL of 0.9% saline, and the pH adjusted with 5 μL of a saturated aqueous NaHCO3 solution to provide 11.0 mL of a clear, colorless solution having a nominal concentration of 0.50 mg/mL of Compound (1c) from Compound (1c) free base and a pH from 5.8 to 6.1.
# as §4, with “4.5” for “10.0”, “5.5” for “11.0”, “1.0” for “0.50”, “of about” for “from 5.8 to”
# as §4, with “1.75” for “10.0”, “2.75” for “11.0”, “2.0” for “0.50”, “of about” for “from 5.8 to”
# A series of 12 mL glass vials each containing 6.1 mg (0.0165 mmol of Compound (1c) mono-hydrochloride salt (corresponding to 5.5 mg of Compound (1c) free base) and 270 mg of SBE6.5-β-CD, Captisol®) were prepared as described in Example 5.
# The cyclodextrin derivative/Compound (1c) mono-HCl salt guest-host inclusion complex was reconstituted by dissolving the guest-host inclusion complex in 0.86 mL of 0.9% saline to provide 1.0 mL of a solution having a nominal concentration of 6.1 mg/mL of Compound (1c) mono-HCl salt (corresponding to a nominal concentration of 5.5 mg/mL of the Compound (1c) free base).
# as §4, with “0.5” for “1.0”, “5.0” for “10.0”, “5.5” for “11.0”, “mono-hydrochloride” for “free base”, “5.3” for “5.8”, “5.5. […]” for “6.1.”
smiles,measurement,setting,value
"Cl.Cn1c(CCCC(=O)O)nc2cc(N(CCCl)CCCl)ccc21 [Bendamustine•HCl, 4-(5-(bis(2-chloroethyl)amino)-1-methyl-1H-benzo[d]imidazol-2-yl) butanoic acid monohydrochloride, reference compound]",% API,"[1]; Formulation 4, 0° C., 0.5 hours, 0.4-0.5 mg/mL",98%
same,% API,"[1]; Formulation 4, 0° C., 2.0 hours, 0.4-0.5 mg/mL",95%
same,% API,"[1]; Formulation 4, 25° C., 0.5 hours, 0.4-0.5 mg/mL",98%
same,% API,"[1]; Formulation 4, 25° C., 0.5 hours, 0.9-1.1 mg/mL",97%
same,% API,"[1]; Formulation 4, 25° C., 0.5 hours, 1.8-2.1 mg/mL",95%
same,% API,"[1]; Formulation 4, 25° C., 2.0 hours, 0.4-0.5 mg/mL",91%
same,% API,"[1]; Formulation 4, 25° C., 2.0 hours, 0.9-1.1 mg/mL",95%
same,% API,"[1]; Formulation 4, 25° C., 2.0 hours, 1.8-2.1 mg/mL",89%
"Cc1ccc(N(CCCl)CCCl)cc1C[C@H](N)CC(=O)O [Compound (1c), (S)-3-amino-4-(5-(bis(2-chloroethyl)amino)-2-methylphenyl) butanoic acid]",Compound (1c) Remaining (%),[2]; 0 min,100%
same,Compound (1c) Remaining (%),[2]; 15 min,78%
same,Compound (1c) Remaining (%),[2]; 30 min,68%
same,Compound (1c) Remaining (%),[2]; 60 min,56%
same,Compound (1c) Remaining (%),[2]; 120 min,30%
same,Compound (1c) Remaining (%),[2]; 240 min,10%
"N[C@@H](Cc1ccc(N(CCCl)CCCl)cc1)C(=O)O [Melphalan free base, melphalan, reference compound]",% API,[3]; 0.5 hours,97%
same,% API,[3]; 2.0 hours,84%
